From patent publication US20070148090A1, “Per (3,6-anhydro) cyclodextrin derivatives, preparation thereof and use thereof for transporting metal elements to biological targets or for decontaminating biological targets of fluids” (priority 2003, published 2007)
“Also recorded” adds a separate entry of the source.

Assays:
[1] = complexation of lead on ion-loaded thin layer chromatography plates (1/Rf); type: binding; conditions: Polygram Ionex 25-SA-Na plates loaded with Pb^2+, developed four times in water; FIG. 4
Source text: (§1) To evaluate the complexation, ion-loaded thin layer chromatography plates which allow rapid evaluation of the complexation of these ions by the species to be evaluated are used. In the present case, plates of Polygram Ionex 25-SA-Na type (Macherey-Nagel, ref: 80613) loaded with various counterions were used. In each test, the compound to be tested is introduced onto the plate, and if the compound complexes the ions, they will be retained on the plate. The plates are then developed four times in water, because of the small amount of migration of the cyclodextrin derivatives, and then the degree of complexation is determined through the value 1/Rf, where Rf represents the ratio: (distance covered by the cyclodextrin derivative/distance covered by the solvent).
(§2) Measurements of degree of complexation of lead (in the form Pb^2+) and of erbium in the form (Er^3+) were carried out for the following three compounds: • the base cyclodextrin mono-2-O-carboxyméthyle-per-(3,6-anhydro)cyclomaltohexaose (designated (1) in FIG. 4); • a cyclodextrin in accordance with the invention, prepared in the context of Example 1 (denoted (2) in FIG. 4); • a cyclodextrin in accordance with the invention, prepared in the context of Example 2 (denoted (3) in FIG. 4).

[2] = complexation of erbium on ion-loaded thin layer chromatography plates (1/Rf); type: binding; conditions: Polygram Ionex 25-SA-Na plates loaded with Er^3+, developed four times in water; FIG. 4
Source text: as §1, §2

Row | Substance | lead-complexation properties (degree of complexation, 1/Rf) [1] | erbium-complexation properties (degree of complexation, 1/Rf) [2]
1 | [(mono-2-O-methyl(mono-ε-amidopoly-L-Lysine)]-per-(3,6-anhydro)-α-cyclodextrin [Example 2] | particularly advantageous | particularly advantageous; also recorded: complex erbium
2 | mono-2-O-carboxymethyl-per-(3,6-anhydro)cyclomaltohexaose [noncoupled per(3,6-anhydro)cyclodextrin, reference compound] | – | does not complex erbium
